{
  "source": "patent US10072038B2",
  "about": "“Crystal of ammonium N-acetylneuraminate anhydrate, and process for producing same” (KYOWA HAKKO BIO CO., LTD., priority 2015, dated 2018)",
  "key": {"[1]": {"test": "Measurement of degree of solubility in water (HPLC of supernatant)", "assay_type": "physicochemical", "details": "FIG. 5; compared with crystal of known NeuAc dihydrate", "method": "(2) Measurement of Degree of Solubility\nA crystal of NeuAc ammonium salt anhydrate, or a crystal of known NeuAc dihydrate was added to water adjusted to the respective temperatures until each crystal remained undissolved and after keeping the solution for a sufficient time under stirring, the supernatant containing no crystal was collected, and the concentration of NeuAc therein was measured using the following HPLC conditions.\nGuard column: Shodex SUGAR SH-G ϕ6.0×50 mm\nColumn: SUGAR SH1011 ϕ8.0×300 mm×2 columns in series\nColumn temperature: 60° C.\nBuffer: an aqueous 0.005 mol/L sulfuric acid solution\nDetector: UV detector (wavelength: 210 nm)\nThe degrees of solubility in water of the crystal of NeuAc ammonium salt anhydrate obtained above and a crystal of NeuAc dihydrate are illustrated in FIG. 5."}, "[2]": {"test": "Weight change (moisture absorption) under an atmosphere of 25° C. and a humidity of 60%", "assay_type": "physicochemical", "details": "humidity 60%; for weight increase due to moisture absorption: up to 24 h", "method": "With respect to the crystal of NeuAc ammonium salt anhydrate and the noncrystalline amorphous NeuAc ammonium salt acquired in Reference Example 1, the weight change under an atmosphere of 25° C. and a humidity of 60% was compared, and the results are shown in Table 5."}, "[3]": {"test": "pH of aqueous solution of the crystal", "assay_type": "physicochemical", "details": "aqueous solution at 100 g/L in terms of NeuAc ammonium salt", "method": "As for the pH, an aqueous solution at 100 g/L in terms of NeuAc ammonium salt was measured."}, "[4]": {"test": "Stability under high temperature conditions judged from melting point", "assay_type": "physicochemical", "details": "inferred from melting point 166.2° C. vs around 105° C. of known monohydrate", "method": "(5) Measurement of Melting Point\nThe measurement was performed using Melting Point M-565 (manufactured by BUCHI) according to the instruction book.\nIn addition, the melting point of the crystal of NeuAc ammonium salt anhydrate is 166.2° C. and is higher than the melting point of around 105° C. of known NeuAc ammonium salt monohydrate salt."}, "[5]": {"test": "Degree of coloration when stored in a closed system at 60° C. (transmittance at 430 nm)", "assay_type": "physicochemical", "details": "for Transmittance T % 430 nm: stored in closed system at 60° C., solution 100 g/L in terms of an anhydrate, 1 cm", "method": "With respect to the crystal of NeuAc ammonium salt anhydrate and a crystal of known NeuAc dihydrate, the degree of coloration when stored in a closed system at 60° C. was compared, and the results are shown in Table 8. The degree of coloration is expressed by transmittance T % 430 nm=100×10^−A (A=Abs: 430 nm, 1 cm), which was obtained by dissolving each crystal at 100 g/L in terms of an anhydrate and performing measurement for the solution."}, "[6]": {"details": "normal temperature; cited from earlier work"}, "[7]": {"details": "cited from earlier work"}},
  "data": [
    {"molecule": "CC(=O)N[C@H]1[C@H]([C@H](O)[C@H](O)CO)OC(O)(C(=O)O)C[C@@H]1O.N", "note": "(stereo partly drawn) [Crystal of ammonium salt, ammonium N-acetylneuraminate anhydrate]", "values": [
      {"measurement": "degree of solubility in water", "setting": "[1]", "result": "large degree of solubility compared with the degree of solubility of the crystal of known NeuAc dihydrate"},
      {"measurement": "Rate of weight change", "setting": "[2]; elapsed time 0 h", "result": 0.00, "unit": "%"},
      {"measurement": "Rate of weight change", "setting": "[2]; elapsed time 3 h", "result": "−0.08", "unit": "%"},
      {"measurement": "Rate of weight change", "setting": "[2]; elapsed time 7 h", "result": "−0.10", "unit": "%"},
      {"measurement": "Rate of weight change", "setting": "[2]; elapsed time 24 h", "result": "−0.06", "unit": "%"},
      {"measurement": "weight increase due to moisture absorption", "setting": "[2]; listed as crystal of NeuAc ammonium salt anhydrate", "result": "a weight increase was not observed"},
      {"measurement": "pH", "setting": "[3]; listed as Example 1", "result": 7.07},
      {"measurement": "pH", "setting": "[3]; listed as Example 2", "result": 6.60},
      {"measurement": "pH", "setting": "[3]; listed as Example 3", "result": 6.39},
      {"measurement": "stability under high temperature conditions", "setting": "[4]", "result": "stable even under high temperature conditions"},
      {"measurement": "coloration during storage", "setting": "[5]; closed system at 60° C., compared with crystal of known NeuAc dihydrate", "result": "extremely low"},
      {"measurement": "Transmittance T % 430 nm", "setting": "[5]; 0 days", "result": 99.73, "unit": "%"},
      {"measurement": "Transmittance T % 430 nm", "setting": "[5]; 3 days", "result": 98.87, "unit": "%"},
      {"measurement": "Transmittance T % 430 nm", "setting": "[5]; 6 days", "result": 98.49, "unit": "%"}
    ]},
    {"molecule": "CC(=O)N[C@H]1[C@H]([C@H](O)[C@H](O)CO)OC(O)(C(=O)O)C[C@@H]1O", "note": "(stereo partly drawn) [Dihydrate crystal, N-Acetylneuraminic acid, reference compound]", "values": [
      {"measurement": "degree of solubility", "setting": "[6]", "result": "about 100 g/L"},
      {"measurement": "storage stability (discoloration of crystal and solution)", "setting": "[7]", "result": "gradually discolored to dark brown"},
      {"measurement": "Transmittance T % 430 nm", "setting": "[5]; 0 days", "result": 100.1, "unit": "%"},
      {"measurement": "Transmittance T % 430 nm", "setting": "[5]; 3 days", "result": 73.26, "unit": "%"},
      {"measurement": "Transmittance T % 430 nm", "setting": "[5]; 6 days", "result": 50.46, "unit": "%"}
    ]},
    {"molecule": "CC(=O)N[C@H]1[C@H]([C@H](O)[C@H](O)CO)OC(O)(C(=O)O)C[C@@H]1O.N", "note": "(stereo partly drawn) [Noncrystalline amorphous, NeuAc ammonium salt, reference compound]", "values": [
      {"measurement": "Rate of weight change", "setting": "[2]; elapsed time 3 h, ammonium salt", "result": 6.58, "unit": "%"},
      {"measurement": "Rate of weight change", "setting": "[2]; elapsed time 7 h, ammonium salt", "result": 10.4, "unit": "%"},
      {"measurement": "Rate of weight change", "setting": "[2]; elapsed time 24 h, ammonium salt", "result": 13.5, "unit": "%"},
      {"measurement": "weight increase due to moisture absorption", "setting": "[2]; listed as noncrystalline amorphous NeuAc ammonium salt, ammonium salt", "result": "marked weight increase due to moisture absorption"},
      {"measurement": "deliquescence", "setting": "[2]; when 24 hours had passed", "result": "deliquesced"}
    ]}
  ]
}
